PMC10587169, “Tuning aminopolycarboxylate chelators for efficient complexation of trivalent actinides” (Scientific Reports, 2023)
Entries after “also recorded” stand apart in the source; their conditions may differ.

How the values were obtained:
[1] = Potentiometric complexometric titration; format: binding; conditions: for logβ101 (ML), Nd / logβ111 (MHL), Nd / logK111, Dy / logK111, Eu / logK111, Ho / logK111, La / logK111, Lu / logK111, Nd / logK111, Tb / logβ101 (ML), Dy / logβ101 (ML), Eu / logβ101 (ML), Ho / logβ101 (ML), La / logβ101 (ML), Lu / logβ101 (ML), Tb / logβ111 (MHL), Dy / logβ111 (MHL), Eu / logβ111 (MHL), Ho / logβ111 (MHL), La / logβ111 (MHL), Lu / logβ111 (MHL), Tb: potentiometry, I = 2.0 M (Na+/H+)ClO4, T = 20.0 °C; for logK111, Dy / logK111, Eu / logK111, Ho / logK111, La / logK111, Lu / logK111, Nd / logK111, Tb / logβ101 (ML), Dy / logβ101 (ML), Eu / logβ101 (ML), Ho / logβ101 (ML), La / logβ101 (ML), Lu / logβ101 (ML), Tb / logβ111 (MHL), Dy / logβ111 (MHL), Eu / logβ111 (MHL), Ho / logβ111 (MHL), La / logβ111 (MHL), Lu / logβ111 (MHL), Tb: ±3σ
Method: All potentiometric titrations were run using a Mettler Toledo T90 autotitrator equipped with an Orion Ross Semi-micro glass electrode with the junction stabilization solution changed to 5.0 M NaCl to prevent precipitation with perchlorate media. All titrations were performed under a hydrated nitrogen atmosphere. The forward titration measurements (acidic titrand, basic titrant) of H4octapa in nitrate electrolyte medium were performed as described previously due to the limited solubility of this ligand in a 2 M (Na^+/H^+)ClO4 medium. Acid dissociation constants of H4octapa in perchlorate electrolyte medium were also determined by titrating in reverse (basic titrand, acidic titrant) to alleviate the solubility concerns. Titrations of H4pypa-peg were performed in reduced-volume glass titration cups (10 mL nominal) due to the limited supply of this ligand. All potentiometric titrations were run in triplicate. The choice of using p[H^+] was explained in Heathman et al.[15], and the calibration of the p[H^+] scale utilized Gran analysis through titration of a strong acid with the base used in the potentiometric titrations[29]–[31]. Potentiometric titration data was modeled and analyzed using Hyperquad2013 to determine acid dissociation and metal complexation stability constants[32],[33].
The coordination of La^3+, Nd^3+, Eu^3+, Tb^3+, Dy^3+, Ho^3+, and Lu^3+ with H4octapa and H4pypa-peg was studied. Figures 4A, B show the potentiometric curves collected when Nd^3+ was titrated with H4octapa and H4pypa-peg, respectively. Both p[H^+] curves show the characteristic buffering region due to deprotonation of metal–ligand complexes when titrated with base. The experimental p[H^+] trend is best represented when considering the presence of MHL(aq) and ML^– complexes as generalized by Eqs. (4) and (5). The progressive formation of the metal complexes throughout the titration is illustrated by species distribution curves, also shown in Figs. 4A, B. The complex formation equilibria are described by the conditional stability constants, β101 and β111, listed in Table 3.

[2] = Solubility in aqueous electrolyte media (observation); format: physicochemical
[3] = Competitive complexation liquid-liquid extraction with HDEHP; format: binding; conditions: competitive solvent extractions, T = 20 ± 1 °C; for logβ101 (ML), Am3+ / logβ101 (ML), Eu3+ / logβ111 (MHL), Am3+ / logβ111 (MHL), Eu3+: I = 2.00 M sodium perchlorate; for logβ101 (ML), Am3+ / logβ101 (ML), Eu3+ / logβ111 (MHL), Am3+ / logβ111 (MHL), Eu3+ / logK111, Am3+ / logK111, Eu3+: ±3σ; for logβ101 (ML), Cm3+: p[H+] variation not monitored
Method: Stability constants for the coordination of Eu^3+, Am^3+, Cm^3+, and Cf^3+ were also achieved by monitoring the suppression of liquid–liquid partitioning of the radiotracer due to the increasing presence of an aqueous complexant. Aqueous solutions were prepared containing sub-millimolar amounts of ligand while maintaining p[H^+] at 1.7, 1.8, 1.9, 2.0, and 2.1. Ionic strength was maintained at 2.00 M using sodium perchlorate. Aqueous complexation was balanced with the appropriate choice of HDEHP concentration in octane to allow accurate quantification of metal distribution. Non-aqueous phases were pre-equilibrated three times with 2.00 M NaClO4 at the corresponding p[H^+]. Preliminary time-dependent studies indicated the phase transfer equilibrium was attained for all measurements with H4octapa and H4pypa-peg (Figures S2 and S3 in the SI). For the mixtures traced with radioisotopes, the activity was measured using gamma spectroscopy (ORTEC GEM50P4 coaxial HPGe detector, DSPEC gamma spectrometer) for ^154Eu (123.07 keV), ^243Am (74.66 keV), and ^249Cf (388.17 keV) and liquid scintillation counting (Perkin Elmer Tri-Carb 3180 TR/SL) for ^248Cm. The ratio of radioisotope activity in the organic and aqueous phases defined the liquid–liquid distribution.
Liquid–liquid partitioning of trivalent f-elements was monitored in presence of H4octapa and H4pypa-peg using a strong liquid cation exchanger, bis–(2-ethylhexyl)phosphoric acid, HDEHP. This competitive solvent extraction methodology was used to determine the conditional stability constants for complexation of Eu^3+, Am^3+, Cm^3+, and Cf^3+ with H4octapa and H4pypa-peg. The metals, present at radiotracer concentrations ([…]), distributed between an organic phase containing HDEHP in n-octane and an aqueous phase containing the complexant at varying concentrations and aqueous acidity. The interpretation of the competitive complexation liquid–liquid distribution data (SI Tables S3 through S5 for H4octapa and S6 through S8 for H4pypa-peg) considered two complex formation equilibria as described by Eqs. (4) and (5). All collected distribution data indicated the average ligand-to-metal stoichiometry of 1.00 ± 0.04 for H4octapa and 1.00 ± 0.03 for H4pypa-peg (see SI Figures S10A and S11A). The partitioning of a trivalent metal ion as facilitated by a dimerized HDEHP cation exchanger can be expressed by Eq. (6) as quantified by the extraction constant, Kex (subscript org refers to organic-soluble species).6 M^3++3HDEHP2,org⇆MHDEHP23,org+3H^+Kex=MHDEHP23,orgH^+^3/M^3+HDEHP2,org^3
Substitution of equilibrium and extraction constants Eqs. (3)–(5) into Eq. (6) yields Eq. (8).8 DM=KexHDEHP2,org^3H^+^3/1+β101L^4-+β111L^4-H^+
At constant HDEHP concentration and p[H^+], when the distribution of the metal ion in absence of ligand is labelled as D^0, the liquid–liquid partitioning of the metal will adhere to Eq. (9),9 D^0/DM-1=β^appL^4- where β^app is the apparent stability constant as represented by β ^app = β101 + β111[H^+].
The Figs. 7A for H4octapa and Fig. 7C for H4pypa-peg show representative Eu^3+, Am^3+, and Cf^3+ sets of dependencies collected at constant aqueous acidities to determine β^app constants from the slopes of the error-weighted least-squares regression analyses. Equivalent dependencies were also collected at different p[H^+] conditions to study variation of β^app trends with p[H^+] as presented in Figs. 7B,D for H4octapa and H4pypa-peg, respectively. The distribution plots for Eu^3+, Am^3+, and Cf^3+ for H4pypa-peg clearly show variation with the changing aqueous acidity, which yielded good estimates for the conditional stability constants for the formation of ML^− and MHL(aq) (Table 5). The collected trends for Cf^3+ in the presence of H4octapa vary to a lesser extent, enabling the determination of β101 only. The p[H^+] variation was not monitored for the coordination of ^248Cm^3+ with both APC ligands due to limited availability of this radioisotope. […]

SMILES | logβ101 (ML), Nd [1] | logβ111 (MHL), Nd [1] | logK111, Dy [1] | logK111, Eu [1] | logK111, Ho [1] | logK111, La [1] | logK111, Lu [1] | logK111, Nd [1] | logK111, Tb [1] | logβ101 (ML), Dy [1] | logβ101 (ML), Eu [1] | logβ101 (ML), Ho [1] | logβ101 (ML), La [1] | logβ101 (ML), Lu [1] | logβ101 (ML), Tb [1] | logβ111 (MHL), Dy [1] | logβ111 (MHL), Eu [1] | logβ111 (MHL), Ho [1] | logβ111 (MHL), La [1] | logβ111 (MHL), Lu [1] | further results
O=C(O)CN(CCN(CCN(CC(=O)O)CC(=O)O)CC(=O)O)CCN(CC(=O)O)CC(=O)O [H6ttha, triethylenetetraamine-N,N,N',N'',N''',N'''-hexaacetic acid] | 21.78(2) | 25.42(2) | – | – | – | – | – | – | – | – | – | – | – | – | – | – | – | – | – | – | logβ121 (MH2L), Nd3+ ([1]; determined using potentiometry, I = 2.0 M (Na+/H+)ClO4 at 20.0 °C): 27.74(3)
O=C(O)CN(CCN(CC(=O)O)Cc1cccc(C(=O)O)n1)Cc1cccc(C(=O)O)n1 [H4octapa, 6,6′-((ethane-1,2-diylbis–((carboxymethyl)azanediyl))bis–(methylene))dipicolinic acid] | 18.19 (1) | 19.92 (2) – | 1.28 (2) | 1.13 (4) | 0.53 (2) | 1.53 (4) | 1.69 (4) | 1.73 (2) – | 1.04 (7) | 18.48 (2) | 18.49 (2) | 18.57 (2) | 17.77 (2) | 17.97 (3) | 18.55 (2) | 19.76 (1) | 19.62 (4) | 19.10 (1) | 19.30 (4) | 19.66 (4) | solubility in high ionic strength perchlorate media ([2]; aqueous sodium perchlorate electrolyte medium, 2 M (Na+/H+)ClO4): limited; also recorded: Low solubility; logβ111 (MHL), Tb [1]: 19.59 (7); logβ101 (ML), Am3+ [3]: 19.3 (6); logβ101 (ML), Eu3+ [3]: 18.59 (2); logβ111 (MHL), Am3+ [3]: – 21.8 (2)^^; logβ111 (MHL), Eu3+ [3]: 20.45 (2); logβ101 (ML), Cm3+ [3]: 19.4^^; logK111, Am3+ [3]: – 2.5 (6)^^; logK111, Eu3+ [3]: 1.86 (2)
O=C(O)CN(Cc1cc(-c2cn(CCOCCOCCO)nn2)cc(CN(CC(=O)O)Cc2cccc(C(=O)O)n2)n1)Cc1cccc(C(=O)O)n1 [H4pypa-peg, 6,6'-((((4-(1-(2-(2-(2-hydroxyethoxy)ethoxy)ethyl)-1H-1,2,3-triazol-4-yl)pyridine-2,6-diyl)bis–(methylene))bis–((carboxymethyl)azanediyl))bis–(methylene)) dipicolinic acid] | 18.20 (2) | 20.43 (2) | 1.97 (2) | 1.96 (1) | 1.80 (4) | 2.32 (1) | 1.87 (5) | 2.22 (2) | 2.02 (2) | 20.05 (1) | 18.91 (1) | 20.50 (4) | 17.86 (1) | 20.72 (5) | 19.75 (2) | 22.03 (2) | 20.87 (1) | 22.31 (4) | 20.18 (1) | 22.60 (5) | aqueous solubility compared to unfunctionalized H4pypa ([2]; moderately acidic aqueous electrolyte mixtures): significantly improved aqueous solubility; logβ111 (MHL), Tb [1]: 21.77 (2); logβ101 (ML), Am3+ [3]: 19.6 (1)^^; logβ101 (ML), Eu3+ [3]: 18.7 (2); logβ111 (MHL), Am3+ [3]: 21.8 (1)^^; logβ111 (MHL), Eu3+ [3]: 20.6 (4); logβ101 (ML), Cm3+ [3]: 19.8; logK111, Am3+ [3]: 2.2 (1)^^; logK111, Eu3+ [3]: 1.9 (4)
